Legend:
[1] = test system: ET-1-induced phosphatidylinositol hydrolysis in MMQ cells; experiment: Determination of ET-1-induced phosphatidylinositol (PI) hydrolysis in MMQ cells; type: cell-based, rat; conditions: 1 nM ET-1 challenge, read-out: IC50 (inhibition of ET-induced increase in PI turnover)
Experimental: MMQ cells (0.4×10^6 cells/mL) were labeled with 10 μCi/mL of [^3H]myo-inositol in RPMI for 16 hours. The cells were washed with PBS, then incubated with Buffer A containing protease inhibitors and 10 mM LiCl for 60 minutes. The cells were then incubated with test compounds for 5 minutes, and then challenged with 1 nM ET-1. ET-1 challenge was terminated by the addition of 1.5 mL of 1:2 (v/v) chloroform-methanol. Total inositol phosphates were extracted after adding chloroform and water to give final proportions of 1:1:0.9 (v/v/v) chloroform-methanol-water as described by Berridge (Biochem. J. 206 587–595 (1982)). The upper aqueous phase (1 mL) was retained and a small portion (100 μL) was counted. The rest of the aqueous sample was analyzed by batch chromatography using anion-exchange resin AG1-X8 (Bio-Rad). […] The results of the above study clearly indicate that the compounds act as functional ET antagonists.

[2] = molecular target: T1, ETA Receptor (Rattus norvegicus, UniProt P26684); experiment: [125I]ET-1 binding to membranes from MMQ cells (ETA receptor binding assay, Table 4); conditions: test compound at 1 μM; 0.1 nM [125I]ET-1, MMQ cell membranes, 4 hours at 25° C.
T1 construct: endogenous in cells; host or cells: MMQ rat pituitary cells (membranes)
T1 sequence (P26684 21-426): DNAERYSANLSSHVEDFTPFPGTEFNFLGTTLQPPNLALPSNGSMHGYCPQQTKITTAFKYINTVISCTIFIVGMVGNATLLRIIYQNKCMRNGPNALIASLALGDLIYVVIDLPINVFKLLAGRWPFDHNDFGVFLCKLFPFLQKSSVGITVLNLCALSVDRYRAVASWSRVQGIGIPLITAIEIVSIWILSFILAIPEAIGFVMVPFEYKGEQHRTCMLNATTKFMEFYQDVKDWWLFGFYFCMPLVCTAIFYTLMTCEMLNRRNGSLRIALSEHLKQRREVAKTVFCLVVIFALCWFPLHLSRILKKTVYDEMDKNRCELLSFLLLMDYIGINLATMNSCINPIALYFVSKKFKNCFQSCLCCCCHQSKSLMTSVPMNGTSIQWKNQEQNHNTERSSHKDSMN

Row | IC50 [1] | % Inhibition of ETA at 1 μM [2] | Compound
1 | 25 nM | 96.4% | CCCNC(=O)CN1CC(c2ccc3c(c2)OCO3)C(C(=O)O)C1c1ccc(OC)cc1 (stereo not drawn) [Example 1D, trans,trans-2-(4-Methoxyphenyl)-4-(1,3-benzodioxol-5-yl)-1-(propylaminocarbonylmethyl)-pyrrolidine-3-carboxylic acid]
2 | 17 nM | 86.6% | C=CCNC(=O)CN1CC(c2ccc3c(c2)OCO3)C(C(=O)O)C1c1ccc(OC)cc1 (stereo not drawn) [Example 14, trans,trans-2-(4-Methoxyphenyl)-4-(1,3-benzodioxol-5-yl)-1-(allylaminocarbonylmethyl)-pyrrolidine-3-carboxylic acid]
3 | 10 nM | 84.8% | CCCCNC(=O)CN1CC(c2ccc3c(c2)OCO3)C(C(=O)O)C1c1ccc(OC)cc1 (stereo not drawn) [Example 15, trans,trans-2-(4-Methoxyphenyl)-4-(1,3-benzodioxol-5-yl)-1-(n-butylaminocarbonylmethyl)-pyrrolidine-3-carboxylic acid]
4 | 9 nM | 96.0% | CCCN(C)C(=O)CN1CC(c2ccc3c(c2)OCO3)C(C(=O)O)C1c1ccc(OC)cc1 (stereo not drawn) [Example 16, trans,trans-2-(4-Methoxyphenyl)-4-(1,3-benzodioxol-5-yl)-1-(N-(n-propyl)-N-methylaminocarbonylmethyl)-pyrrolidine-3-carboxylic acid]
5 | 9 nM | 97.3% | COc1ccc(C2C(C(=O)O)C(c3ccc4c(c3)OCO4)CN2CC(=O)NCC(C)C)cc1 (stereo not drawn) [Example 18, trans,trans-2-(4-Methoxyphenyl)-4-(1,3-benzodioxol-5-yl)-1-(isobutylaminocarbonylmethyl)-pyrrolidine-3-carboxylic acid]
6 | 24 nM | 90.3% | COc1ccc(C2C(C(=O)O)C(c3ccc4c(c3)OCO4)CN2CC(=O)NC2CCCC2)cc1 (stereo not drawn) [Example 19, trans,trans-2-(4-Methoxyphenyl)-4-(1,3-benzodioxol-5-yl)-1-(cyclopentylaminocarbonylmethyl)-pyrrolidine-3-carboxylic acid]
7 | 1 nM | 80.0% | CCCCN(C)C(=O)CN1CC(c2ccc3c(c2)OCO3)C(C(=O)O)C1c1ccc(OC)cc1 (stereo not drawn) [Example 30, trans,trans-2-(4-Methoxyphenyl)-4-(1,3-benzodioxol-5-yl)-1-(N-methyl-N-butylaminocarbonylmethyl)-pyrrolidine-3-carboxylic acid]
8 | 2 nM | 93.6% | CCCCN(C)C(=O)CN1CC(c2ccc3c(c2)OCO3)C(C(=O)O)C1c1ccc(OC)cc1OCOC (stereo not drawn) [Example 31B, trans,trans-2-(4-Methoxy-2-methoxymethoxyphenyl)-4-(1,3-benzodioxol-5-yl)-1-(N-methyl-N-butylaminocarbonylmethyl)-pyrrolidine-3-carboxylic acid]
9 | 2 nM | 90.4% | COc1ccc(C2C(C(=O)O)C(c3ccc4c(c3)OCO4)CN2CC(=O)N(C)C2CCCCC2)cc1 (stereo not drawn) [Example 46, trans,trans-2-(4-Methoxyphenyl)-4-(1,3-benzodioxol-5-yl)-1-(N-methyl-N-cyclohexylaminocarbonylmethyl)-pyrrolidine-3-carboxylic acid]
10 | 0.5 nM | 95.1% | CCCN(CCC)C(=O)CN1CC(c2ccc3c(c2)OCO3)C(C(=O)O)C1c1ccc(OC)cc1 (stereo not drawn) [Example 47, trans,trans-2-(4-Methoxyphenyl)-4-(1,3-benzodioxol-5-yl)-1-(N,N-di(n-propyl)aminocarbonylmethyl)-pyrrolidine-3-carboxylic acid]
11 | 0.4 nM | 96.3% | COc1ccc(C2C(C(=O)O)C(c3ccc4c(c3)OCO4)CN2CC(=O)N(C)CC(C)C)cc1 (stereo not drawn) [Example 48, trans,trans-2-(4-Methoxyphenyl)-4-(1,3-benzodioxol-5-yl)-1-(N-methyl-N-isobutylaminocarbonylmethyl)-pyrrolidine-3-carboxylic acid]

Source: patent US7208517B1, “Endothelin antagonists” (Abbott Labortories, priority 1994, dated 2007)
